According to the supplement of paper PMC10307832:

What was measured:
Assay in all cases: relative viability (nuclei count vs DMSO), 5 days (fraction); higher = more cells survive
[1] = compound: Cn1c(Nc2ccc(C(F)(F)F)cc2)nc2cc(Oc3ccnc(-c4ncc(C(F)(F)F)[nH]4)c3)ccc21 [RAF265] + Cc1cc(Nc2cc(N3CCN(C)CC3)nc(Sc3ccc(NC(=O)C4CC4)cc3)n2)n[nH]1 [Tozasertib] (partner 0.1 µM)
How it was run: (§1)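 Lung cancer cell lines were seeded in 1536-well plates and dosed by pin tool the next day, with either a single drug or a fixed anchor-drug dose combined with five library-drug doses (not always all listed) spaced in √10 steps. Five days later, one step fixed the cells and stained their nuclei (final 0.05% Triton X-100, 1% formaldehyde, 1 ug/ml Hoechst), and nuclei were counted on 4× images. Relative viability is the nuclei count in treated wells divided by the count in vehicle wells, and each value is the median of duplicate plates.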

[2] = compound: Cn1c(Nc2ccc(C(F)(F)F)cc2)nc2cc(Oc3ccnc(-c4ncc(C(F)(F)F)[nH]4)c3)ccc21 [RAF265] + O=C(c1cc(Cc2n[nH]c(=O)c3ccccc23)ccc1F)N1CCN(C(=O)C2CC2)CC1 [Olaparib] (partner 8 µM)
How it was run: as §1

[3] = compound: C1=CC=C2C(=C1)C=CC(=C2SSC3=C(C=CC4=CC=CC=C43)O)O [IPA-3] + O=C(CCCCCCC(=O)Nc1ccccc1)NO [Vorinostat] (partner 1 µM)
How it was run: as §1

[4] = compound: C1=CC=C2C(=C1)C=CC(=C2SSC3=C(C=CC4=CC=CC=C43)O)O [IPA-3] + Nc1nc2[nH]cc(CCc3ccc(C(=O)N[C@@H](CCC(=O)O)C(=O)O)cc3)c2c(=O)[nH]1 [Pemetrexed] (partner 0.2 µM)
How it was run: as §1

Row | Cell Line | relative viability ([1]; first compound 0.01 µM) | relative viability ([1]; first compound 0.03162 µM) | relative viability ([1]; first compound 0.1 µM) | relative viability ([1]; first compound 0.3162 µM) | relative viability ([1]; first compound 1 µM) | relative viability ([2]; first compound 0.01 µM) | relative viability ([2]; first compound 0.03162 µM) | relative viability ([2]; first compound 0.1 µM) | relative viability ([2]; first compound 0.3162 µM) | relative viability ([2]; first compound 1 µM) | relative viability ([3]; first compound 0.2 µM) | relative viability ([3]; first compound 0.6325 µM) | relative viability ([3]; first compound 2 µM) | relative viability ([3]; first compound 6.325 µM) | relative viability ([3]; first compound 20 µM) | relative viability ([4]; first compound 0.2 µM) | relative viability ([4]; first compound 0.6325 µM) | relative viability ([4]; first compound 2 µM) | relative viability ([4]; first compound 6.325 µM) | relative viability ([4]; first compound 20 µM)
1 | NCI-H1734 | 0.306 | 0.276 | 0.255 | 0.232 | 0.215 | 0.627 | 0.574 | 0.575 | 0.511 | 0.344 | 0.922 | 0.761 | 0.799 | 0.726 | 0.638 | 0.412 | 0.46 | 0.436 | 0.365 | 0.383
2 | A-427 | 0.218 | 0.213 | 0.205 | 0.109 | 0.089 | 0.831 | 0.604 | 0.712 | 0.459 | 0.29 | 0.858 | 0.88 | 0.9 | 0.918 | 0.853 | 1.06 | 1.01 | 0.998 | 0.903 | 0.982
3 | RERF-LC-KJ | 0.54 | 0.482 | 0.507 | 0.39 | 0.386 | 0.952 | 0.892 | 0.759 | 0.682 | 0.575 | 0.829 | 0.729 | 0.726 | 0.653 | 0.696 | 0.487 | 0.46 | 0.482 | 0.489 | 0.566
4 | LCLC-97TM1 | 0.223 | 0.141 | 0.156 | 0.109 | 0.0904 | 0.363 | 0.299 | 0.237 | 0.22 | 0.109 | 1.11 | 0.875 | 0.724 | 0.575 | 1.12 | 0.165 | 0.184 | 0.164 | 0.148 | 0.179
5 | BEN | 0.441 | 0.575 | 0.468 | 0.554 | 0.407 | 1.04 | 1.09 | 1.16 | 1.19 | 0.846 | 0.594 | 0.59 | 0.586 | 0.686 | 0.568 | 0.751 | 0.843 | 0.852 | 0.814 | 0.774
6 | NCI-H2023 | 0.314 | 0.497 | 0.466 | 0.286 | 0.183 | 0.491 | 0.452 | 0.544 | 0.524 | 0.374 | 0.866 | 0.681 | 0.789 | 0.699 | 0.839 | 0.249 | 0.207 | 0.266 | 0.227 | 0.243
7 | LC-2-ad | 0.529 | 0.459 | 0.507 | 0.356 | 0.335 | 0.696 | 0.769 | 0.921 | 0.904 | 0.636 | 0.72 | 0.681 | 0.788 | 0.726 | 0.76 | 0.294 | 0.28 | 0.285 | 0.281 | 0.307
8 | NCI-H647 | 0.197 | 0.207 | 0.269 | 0.443 | 0.158 | 0.422 | 0.494 | 0.357 | 0.399 | 0.306 | 0.628 | 0.376 | 0.581 | 0.544 | 0.151 | 0.164 | 0.162 | 0.209 | 0.134 | 0.089
9 | NCI-H1755 | 0.556 | 0.634 | 0.598 | 0.552 | 0.402 | 0.879 | 0.788 | 0.909 | 0.717 | 0.499 | 0.863 | 0.61 | 0.694 | 0.63 | 0.704 | 0.621 | 0.44 | 0.495 | 0.399 | 0.398
10 | EPLC-272H | 0.218 | 0.328 | 0.275 | 0.257 | 0.199 | 0.685 | 0.499 | 0.428 | 0.209 | 0.161 | 0.397 | 0.468 | 0.366 | 0.482 | 0.546 | 0.415 | 0.309 | 0.337 | 0.355 | 0.371
11 | NCI-H1437 | 0.408 | 0.437 | 0.427 | 0.45 | 0.365 | 0.644 | 0.611 | 0.653 | 0.619 | 0.561 | 0.863 | 0.644 | 0.691 | 0.783 | 0.826 | 0.298 | 0.294 | 0.32 | 0.323 | 0.334
12 | EKVX | 0.376 | 0.344 | 0.469 | 0.377 | 0.306 | 0.806 | 0.866 | 0.966 | 0.646 | 0.653 | 0.801 | 0.693 | 0.83 | 0.793 | 0.763 | 0.407 | 0.439 | 0.429 | 0.426 | 0.582
13 | NCI-H1651 | 0.744 | 0.718 | 0.731 | 0.703 | 0.426 | 0.187 | 0.17 | 0.194 | 0.185 | 0.167 | 0.608 | 0.612 | 0.61 | 0.645 | 0.592 | 0.602 | 0.606 | 0.621 | 0.591 | 0.679
14 | HCC-15 | 0.406 | 0.32 | 0.538 | 0.401 | 0.278 | 0.837 | 0.647 | 0.656 | 0.608 | 0.43 | 0.929 | 0.937 | 0.894 | 0.804 | 0.975 | 0.222 | 0.23 | 0.214 | 0.225 | 0.221
15 | LCLC-103H | 0.472 | 0.48 | 0.42 | 0.424 | 0.227 | 0.759 | 0.717 | 0.75 | 0.595 | 0.444 | 0.849 | 0.807 | 0.805 | 0.865 | 0.867 | 0.474 | 0.463 | 0.461 | 0.504 | 0.476
16 | NCI-H23 | 0.368 | 0.373 | 0.334 | 0.254 | 0.172 | 0.363 | 0.24 | 0.294 | 0.271 | 0.186 | 0.735 | 0.616 | 0.595 | 0.611 | 0.501 | 0.694 | 0.628 | 0.764 | 0.644 | 0.68
